A short description of the series: In vitro nitric oxide release and content by nitrogen oxides analyzer (Monitor Labs Model 8440). In kind it is physicochemical. As for the experimental part: The nitric oxide content and kinetic release profile, shown in FIG. 2, of nitrosylcobalamin was determined in vitro using a nitrogen oxides analyzer (Monitor Labs Model 8440). The amount of NO-"loading" was determined by examining the cumulative NO release, characterized at pH 4.9, 32° C., during a time span of 675.5 hours. The total NO released was 4,610 nmol NO, 38% loading based on the theoretical maximum of 11,890 nmol. The first twenty hours of NO release was characterized in great detail, with data readings taken every 15 minutes for the first eight hours and every half hour thereafter, resulting in the production of 260 nmol NO. […] At pH 10.0, NO release was undetected even though the sample size was increased to 20.6 mg.

nitrosylcobalamin: the “NO produced at pH 5.0” value (5 mg sample, pH 5.0, 37° C., 86 hour time span) is given as 95.0 nmol. Further, the “NO produced at pH 6.0” value (5 mg sample, pH 6.0, 37° C., 86 hour time span) is on record as 2.4 nmol. For the same substance, where the note is “5 mg sample, pH 7.4, 37° C., 86 hour time span”, the “NO produced at pH 7.4” value is 1.05 nmol. Besides, the “kinetic order of the cumulative NO release profile” value (cumulative NO release, pH 4.9, 32° C., R^2 =0.9984) is recorded as “first order kinetics”. The “calculated half life of NO release” value (first order fit of cumulative NO release, pH 4.9, 32° C.) was 210 h. The “NO release in the first twenty hours” value (first twenty hours, pH 4.9, 32° C.) came to 260 nmol. For the same substance, the “NO loading, based on the theoretical maximum of 11,890 nmol” value (from cumulative NO release at pH 4.9, 32° C., 675.5 hours) is 38%. Also, the “total NO released (cumulative NO release)” value (pH 4.9, 32° C., time span of 675.5 hours) is on record as 4,610 nmol. For the same substance, the “NO release at pH 10.0” value (pH 10.0, sample size 20.6 mg) is recorded as “undetected”.
